What was measured:
ADP P2Y12 = biological target: T1, ADP P2Y12 (Homo sapiens, UniProt Q9H244); assay: FLIPR calcium assay transducing Gi-coupled signaling to the Gq pathway (inhibition of calcium mobilization); format: cell-based; conditions: HEK 293 cells co-transfected with P2Y12 and Gqi5, ADP at EC60-70 dose
T1 construct: expressed in transfected cells
Description: A FLIPR Calcium Assay Transducing Gi-Coupled Signaling to the Gq Pathway
The ADP P2Y12 subtype is a Gi coupled GPCR, which mediates inhibition of adenylate cyclase leading to decreased cAMP while Gq proteins primarily activate phospholipase C, which stimulates inositol-1,4,5-triphosphate (IP3) formation and a subsequent increase in intracellular Ca^2+ concentration, which can be easily measured by FLIPR. Prior to the development of a method to convert a Gi coupled GPCR signaling to a Gq coupled GPCR signaling, a significant barrier existed for the functional testing and screening of Gi coupled GPCRs. One popular method, GTPγS migration, is slow, produces a small signal and generates radioactive waste. The discovery that a small switch in the amino acid sequence in the Gi protein could convert it to a protein mediating a Gq coupled response has led to the development of robust, high throughput assays for this valuable receptor subtype.
The FLIPR-based HTS assay transducing the Gi signaling to the Gq pathway is described below.
pcDNA3hygroP2Y12 containing a hygromycin resistance gene and pLEC1-Gqi5-HA containing a neomycin resistance gene (licensed from Molecular Devices, Sunnyvale, Calif.) were co-transfected into Human embryonic kidney (HEK) 293 cells with SuperFect (Qiagen, Valencia, Calif.). Cell clones were selected in the presence of 600 μg/ml hygromycin B (Life Technologies, Carlsbad, Calif.) and 1 mg/ml of G418 (Mediatech, Herndon, Va.). Drug resistant colonies were picked and screened by FLIPR and the gene expression was further confirmed by RT-PCR. Positive clones were maintained in growth medium (DMEM supplemented with 10% FBS, 1×p/s) containing 400 μg/ml of G418 and 200 μg/ml of hygromycin.
The day before the assay, cells are seeded in clear, flat-bottom black-wall, tissue culture treated polystyrene 96- or 384-well plates and incubated at 37° C., 5% CO2. 50 μl of complete dye loading solution (FLIPR Calcium Assay Kit, Molecular Devices) was added to each well containing 100 μl of culture media. The cells were incubated for at least 30 min at 37° C., in 5% CO2 before initiating the assay on the FLIPR. The agonist effect of ADP was tested and EC50 was determined prior to compound testing. The EC60-70 dose was used.
The antagonist compounds were prepared at 4× and the agonists were diluted at 5× the concentration desired in the test wells, and then aliquoted into the sample plates. The sample plates and the cell plate were placed in the FLIPR assay chamber. A first addition (50 μl) was made at the start of reading and a second addition (50 μl) was made after 5 min of reading. Raw fluorescence data was exported for each well and tabulated versus time within an ASCII file. Data was then imported into Excel and the peak response over the basal level was determined. The percent inhibition for each compound was calculated by the change in fluorescent density as a % inhibition of the control ADP response to obtain an IC50, as shown in Table 1 (wherein N/A means Not Applicable).

P2Y12 receptor = biological target: T2, P2Y12 receptor (Homo sapiens, UniProt Q9H244); assay: Whole cell receptor binding assay for 2-MeS[3H]-ADP; conditions: whole HEK 293 cells transfected with P2Y12; 2-MeS[3H]-ADP 3 nM; 30 min at 37° C.; read-out: Inhibition of Receptor Binding IC50
T2 construct: expressed in transfected cells
T2 sequence (Q9H244 whole entry): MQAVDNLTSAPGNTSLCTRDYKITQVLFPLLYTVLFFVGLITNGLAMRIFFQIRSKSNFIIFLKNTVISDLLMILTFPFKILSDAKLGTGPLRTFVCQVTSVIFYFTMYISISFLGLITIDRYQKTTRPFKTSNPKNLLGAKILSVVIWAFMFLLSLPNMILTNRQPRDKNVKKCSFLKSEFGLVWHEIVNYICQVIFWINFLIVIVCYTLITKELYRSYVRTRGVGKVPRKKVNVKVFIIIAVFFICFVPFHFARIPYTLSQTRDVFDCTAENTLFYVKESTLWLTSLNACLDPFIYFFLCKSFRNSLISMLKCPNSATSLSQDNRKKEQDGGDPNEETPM
Procedure: A whole cell-binding assay for 2-MeS [^3H]-ADP (Custom synthesized by Amersham BioScience, Piscataway, N.J.) to the P2Y12 receptor was performed.
A P2Y12 cDNA containing hygromycin resistant gene was transfected in HEK 293 cells. A stable cell line was obtained by a cloning selection method. The cells were cultured in DMEM supplemented with 10% FBS and 1× of p/s.
On the day of the assay, the cells were harvested and resuspended in 0.25% BSA-DMEM and adjusted to a cell concentration of 1.6×10^6/ml. […] The reaction was then incubated for 30 min at 37° C. and stopped by adding cold DMEM. […] The plates were dyed in a 37° C. oven for 1-2 hours and 50 μl of MicroScint-20 (PerkinElmer) was added to each well. The radioactivity was measured using a TOPCOUNT beta counter (Packard).

washed platelets = assay: In vitro platelet aggregation; format: cell-based; conditions: Homo sapiens, washed platelets from healthy volunteers, agonist (ADP) at 60-70% aggregation, % inhibition of control ADP response
Procedure: Platelet aggregation studies were performed according to a published method (Bednar, B., Condra, C., Gould, R. J., and Connolly, T. M., Throm. Res., 77:453-463 (1995). Platelet-rich plasma (PRP) concentrates prepared from healthy volunteers who were aspirin free for at least 7 days by venipuncture using ACD-A as anticoagulant was purchased from Biological Specialties, Inc. (Colmar, Pa.). PRP was centrifuged at 730 g for 15 min. The platelet pellet was washed twice in CGS buffer (13 mM sodium citrate, 30 mM glucose, 120 mM NaCl, pH 6.5) containing 1 μ/ml apyrase (grade V, Sigma-Aldrich, St. Louis, Mo.), 1 mM EGTA, and resuspended in Tyrode's buffer (140 mM NaCl, 2.7 mM KCl, 12 mM NaHCO3, 0.76 mM Na2HPO4, 5.5 mM dextrose, 5.0 mM Hepes, 0.2% BSA, pH 7.4). The platelets were diluted to 3×10^8 platelets/ml and kept >45 min at 37° C. before use. 105 μl of washed platelets, 2 mM CaCl2 and […] of fibrinogen were added to a 96-well microliter plate.
Platelet aggregation was initiated by the addition of serial concentrations of ADP (BioData Corp. Horsham, Pa.). Buffer was added to one set of control wells. The assay plate was stirred constantly and intermittently placed in a microplate reader (Softmax, Molecular Devices, Menlo Park, Calif.) to read optical density (650 nm) at 0 and 5 minutes after the addition of the compound solutions. Aggregation was calculated as the decrease in optical density between the time 0- and 5-min measurements and expressed as % of aggregation. For the inhibition assay, platelet aggregation was conducted as described above except for compound additions. Test compounds were prepared in 100% DMSO and stored.
On the day of the assay, test compounds were diluted in the buffer containing 3% of DMSO as a 10× working solution. 15 μl of compound solutions were added to 105 μl of platelets 5 min prior to the addition of CaCl2 and fibrinogen.

T1 sequence (Q9H244 whole entry): as above

Row | Compound | IC50 (ADP P2Y12) | IC50 (P2Y12 receptor) | IC50 (washed platelets)
1 | CCCSc1nc(NC[C@@H]2CCCO2)c2nnn([C@@H]3C=C[C@H](O)[C@@H](O)[C@H]3O)c2n1 [Cpd 3, (1S,2R,3S,6R)-6-(5-propylsulfanyl-7-{[(2S)-tetrahydro-furan-2-ylmethyl]-amino}-[1,2,3]triazolo[4,5-d]pyrimidin-3-yl)-cyclohex-4-ene-1,2,3-triol] | > 30 µM | 4.75 µM | 
2 | CCCSc1nc(NCc2ccco2)c2nnn([C@@H]3C=C[C@H](O)[C@@H](O)[C@H]3O)c2n1 [Cpd 4, (1S,2R,3S,4R)-6-{7-[(furan-2-ylmethyl)-amino]-5-propylsulfanyl-[1,2,3]triazolo[4,5-d]pyrimidin-3-yl}-cyclohex-4-ene-1,2,3-triol] | > 30 µM |  | 
3 | CCCSc1nc(NCC2CCCN2CC)c2nnn([C@@H]3C=C[C@H](O)[C@@H](O)[C@H]3O)c2n1 (stereo partly drawn) [Cpd 6, (1S,2R,3S,4R)-6-{7-[(1-ethyl-pyrrolidin-2-ylmethyl)-amino]-5-propylsulfanyl-[1,2,3]triazolo[4,5-d]pyrimidin-3-yl}-cyclohex-4-ene-1,2,3-triol] | > 30 µM |  | 
4 | CCCSc1nc(NCc2cccn2C)c2nnn([C@@H]3C=C[C@H](O)[C@@H](O)[C@H]3O)c2n1 [Cpd 8, (1S,2R,3S,6R)-6-{7-[(1-methyl-1H-pyrrol-2-ylmethyl)-amino]-5-propylsulfanyl-[1,2,3]triazolo[4,5-d]pyrimidin-3-yl}-cyclohex-4-ene-1,2,3-triol] | > 30 µM |  | 
5 | CCCSc1nc(NC[C@@H]2CCCO2)c2nnn([C@@H]3CC[C@H](O)[C@@H](O)[C@H]3O)c2n1 [Cpd 16, (1S,2R,3S,4R)-4-(5-propylsulfanyl-7-{[(2S)-tetrahydro-furan-2-ylmethyl]-amino}-[1,2,3]triazolo[4,5-d]pyrimidin-3-yl)-cyclohexane-1,2,3-triol] | > 30 µM |  | 
6 | CCCSc1nc(NC[C@H]2CCCO2)c2nnn([C@@H]3CC[C@H](O)[C@@H](O)[C@H]3O)c2n1 [Cpd 17, (1S,2R,3S,4R)-4-(5-propylsulfanyl-7-{[(2R)-tetrahydro-furan-2-ylmethyl]-amino}-[1,2,3]triazolo[4,5-d]pyrimidin-3-yl)-cyclohexane-1,2,3-triol] | > 30 µM |  | > 30 µM
7 | CCCSc1nc(NCc2ccco2)c2nnn([C@@H]3CC[C@H](O)[C@@H](O)[C@H]3O)c2n1 [Cpd 18, (1S,2R,3S,4R)-4-{7-[(furan-2-ylmethyl)-amino]-5-propylsulfanyl-[1,2,3]triazolo[4,5-d]pyrimidin-3-yl}-cyclohexane-1,2,3-triol] | > 30 µM |  | 
8 | CCCSc1nc(NCCc2cccs2)c2nnn([C@@H]3CC[C@H](O)[C@@H](O)[C@H]3O)c2n1 [Cpd 20, (1S,2R,3S,4R)-4-[5-propylsulfanyl-7-(2-thiophen-2-yl-ethylamino)-[1,2,3]triazolo[4,5-d]pyrimidin-3-yl]-cyclohexane-1,2,3-triol] | > 30 µM |  | 
9 | CCCSc1nc(N[C@@H]2CCN(Cc3ccccc3)C2)c2nnn([C@@H]3CC[C@H](O)[C@@H](O)[C@H]3O)c2n1 [Cpd 22, (1S,2R,3S,4R)-4-{7-[(3R)-1-benzyl-pyrrolidin-3-ylamino]-5-propylsulfanyl-[1,2,3]triazolo[4,5-d]pyrimidin-3-yl}-cyclohexane-1,2,3-triol] | > 30 µM |  | 

The next lines start with results.

Row | IC50 (ADP P2Y12) | IC50 (P2Y12 receptor) | Compound | IC50 (washed platelets)
10 | > 30 µM |  | CCCSc1nc(N[C@@H]2C[C@H]2c2ccccc2)c2nnn([C@@H]3C=C[C@H](O)[C@H]4OC(C)(C)O[C@H]43)c2n1 (mixture of isomers) [Cpd 10, (3aR,4S,7R,7aS)-2,2-dimethyl-7-{7-[(1RS,2SR)-2-phenyl-cyclopropylamino]-5-propylsulfanyl-[1,2,3]triazolo[4,5-d]pyrimidin-3-yl}-3a,4,7,7a-tetrahydro-benzo[1,3]dioxol-4-ol] | 
11 | > 30 µM | 8.56 µM | CCCSc1nc(N[C@@H]2C[C@H]2c2ccccc2)c2nnn([C@@H]3C=C[C@H](OCCO)[C@@H](O)[C@H]3O)c2n1 (mixture of isomers) [Cpd 13, (1S,2S,3S,6R)-3-(2-hydroxy-ethoxy)-6-{7-[(1RS,2SR)-2-phenyl-cyclopropylamino]-5-propylsulfanyl-[1,2,3]triazolo[4,5-d]pyrimidin-3-yl}-cyclohex-4-ene-1,2-diol] | 
12 | 2.63 µM | 6.6 µM | CCCSc1nc(N[C@@H]2C[C@H]2c2ccccc2)c2nnn([C@@H]3CC[C@H](OCCO)[C@@H](O)[C@H]3O)c2n1 (mixture of isomers) [Cpd 15, (1S,2S,3S,6R)-3-(2-hydroxy-ethoxy)-6-{7-[(1RS,2SR)-2-phenyl-cyclopropylamino]-5-propylsulfanyl-[1,2,3]triazolo[4,5-d]pyrimidin-3-yl}-cyclohexane-1,2-diol] | 
13 | 6.9 µM | 2.2 µM | CCCSc1nc(N[C@@H]2C[C@H]2c2ccccc2)c2nnn(C3[C@@H](O)[C@@H](O)C(OCCO)[C@@H](O)[C@H]3O)c2n1 (mixture of isomers) [Cpd 12, (1R,2R,4S,5S)-3-(2-hydroxy-ethoxy)-6-{7-[(1RS,2SR)-2-phenyl-cyclopropylamino]-5-propylsulfanyl-[1,2,3]triazolo[4,5-d]pyrimidin-3-yl}-cyclohexane-1,2,4,5-tetraol] | 
14 | > 30 µM |  | CCCSc1nc(NC[C@H]2CCCO2)c2nnn([C@@H]3C=C[C@H](O)[C@@H](O)[C@H]3O)c2n1 [Cpd 2, (1S,2R,3S,6R)-6-(5-propylsulfanyl-7-{[(2R)-tetrahydro-furan-2-ylmethyl]-amino}-[1,2,3]triazolo[4,5-d]pyrimidin-3-yl)-cyclohex-4-ene-1,2,3-triol] | 
15 | 14.7 µM | 2.27 µM | CCCSc1nc(NCCc2cccs2)c2nnn([C@@H]3C=C[C@H](O)[C@@H](O)[C@H]3O)c2n1 [Cpd 7, (1S,2R,3S,4R)-6-[5-propylsulfanyl-7-(2-thiophen-2-yl-ethylamino)-[1,2,3]triazolo[4,5-d]pyrimidin-3-yl]-cyclohex-4-ene-1,2,3-triol] | 
16 | 2.93 µM |  | CCCCNc1nc(SCCC)nc2c1nnn2[C@@H]1CC[C@H](O)[C@@H](O)[C@H]1O [Cpd 19, (1S,2R,3S,4R)-4-(7-butylamino-5-propylsulfanyl-[1,2,3]triazolo[4,5-d]pyrimidin-3-yl)-cyclohexane-1,2,3-triol] | 
